Measurements: PubChem BioAssay AID248 (DTP/NCI, 2004)
Toxic doses and inconclusive results are not listed. Cut-off read from the data, not from the text of the source: active = T/C of 150% or more; inactive = T/C below 125%.

Tested on: L1210 leukemia ip in BDF1 mice, survival T/C
Assay: NCI In Vivo Anticancer Drug Screen. Data for tumor model L1210 Leukemia (intraperitoneal) in B6D2F1 (BDF1) mice
Conditions: endpoint: mean survival time, higher = longer survival
Method in brief: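 In this screen, tumor-bearing mice given compound are compared to those given vehicle, and their survival values are reported as a treated-to-control quotient.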

[1] = dose: 100.0 mg/kg/injection, schedule: Q04DX003 (ip), vehicle: saline
[2] = dose: 200.0 mg/kg/injection, schedule: Q04DX003 (ip), vehicle: saline
[3] = dose: 400.0 mg/kg/injection, schedule: Q04DX003 (ip), vehicle: saline
[4] = dose: 100.0 mg/kg/injection, schedule: Q01DX001 (ip), vehicle: saline
[5] = dose: 200.0 mg/kg/injection, schedule: Q01DX001 (ip), vehicle: saline
[6] = dose: 400.0 mg/kg/injection, schedule: Q01DX001 (ip), vehicle: saline
[7] = dose: 100.0 mg/kg/injection, schedule: Q04DX003 (ip), vehicle: saline with Tween-80
[8] = dose: 400.0 mg/kg/injection, schedule: Q04DX003 (ip), vehicle: saline with Tween-80
[9] = dose: 100.0 mg/kg/injection, schedule: Q04DX003 (ip), vehicle: Klucel (hydroxypropylcellulose) (HPC)
[10] = dose: 200.0 mg/kg/injection, schedule: Q04DX003 (ip), vehicle: Klucel (hydroxypropylcellulose) (HPC)
[11] = dose: 400.0 mg/kg/injection, schedule: Q04DX003 (ip), vehicle: Klucel (hydroxypropylcellulose) (HPC)
[12] = dose: 100.0 mg/kg/injection, schedule: Q01DX009 (ip), vehicle: saline
[13] = dose: 200.0 mg/kg/injection, schedule: Q01DX009 (ip), vehicle: saline
[14] = dose: 400.0 mg/kg/injection, schedule: Q01DX009 (ip), vehicle: saline
[15] = dose: 100.0 mg/kg/injection, schedule: Q01DX001 (ip), vehicle: Klucel (hydroxypropylcellulose) (HPC)
[16] = dose: 200.0 mg/kg/injection, schedule: Q01DX001 (ip), vehicle: Klucel (hydroxypropylcellulose) (HPC)
[17] = dose: 100.0 mg/kg/injection, schedule: Q01DX009 (ip), vehicle: Klucel (hydroxypropylcellulose) (HPC)
[18] = dose: 200.0 mg/kg/injection, schedule: Q01DX009 (ip), vehicle: Klucel (hydroxypropylcellulose) (HPC)
[19] = dose: 400.0 mg/kg/injection, schedule: Q01DX009 (ip), vehicle: Klucel (hydroxypropylcellulose) (HPC)
[20] = dose: 100.0 mg/kg/injection, schedule: Q04DX002 (ip), vehicle: Klucel (hydroxypropylcellulose) (HPC)
[21] = dose: 200.0 mg/kg/injection, schedule: Q04DX002 (ip), vehicle: Klucel (hydroxypropylcellulose) (HPC)
[22] = dose: 400.0 mg/kg/injection, schedule: Q04DX002 (ip), vehicle: Klucel (hydroxypropylcellulose) (HPC)
[23] = dose: 100.0 mg/kg/injection, schedule: Q01DX001 (ip), vehicle: carboxymethylcellulose (CMC)
[24] = dose: 200.0 mg/kg/injection, schedule: Q01DX001 (ip), vehicle: carboxymethylcellulose (CMC)
[25] = dose: 400.0 mg/kg/injection, schedule: Q01DX001 (ip), vehicle: carboxymethylcellulose (CMC)

Measured: T/C

NC(=S)N/N=C/c1cccc(CC(O)(C(F)(F)F)C(F)(F)F)n1
inactive: dose: 12.5 mg/kg/injection, schedule: Q01DX009 (ip), vehicle: saline with Tween-80 97 % of control | dose: 25.0 mg/kg/injection, schedule: Q01DX009 (ip), vehicle: saline with Tween-80 95 % of control | dose: 50.0 mg/kg/injection, schedule: Q01DX009 (ip), vehicle: saline with Tween-80 93 % of control

CNCC(NC)c1cc(OC)c(OC)c(OC)c1 (centres undefined)
inactive: [1] 94 % of control | [2] 95 % of control | [3] 94 % of control

OCC1OC(n2ncc3c(Cl)ccnc32)C(O)C1O (centres undefined)
inactive: dose: 50.0 mg/kg/injection, schedule: Q01DX005 (ip), vehicle: other 91 % of control

O=c1c(O)c(-c2ccc(-c3oc4ccccc4c(=O)c3O)cc2)oc2ccccc12
inactive: dose: 50.0 mg/kg/injection, schedule: Q01DX001 (ip), vehicle: saline 97 % of control | [4] 89 % of control | [5] 91 % of control | [6] 101 % of control

S=C(S)N1CCC(CCCC2CCN(C(=S)S)CC2)CC1
inactive: dose: 100.0 mg/kg/injection, schedule: Q01DX009 (ip), vehicle: saline with Tween-80 88 % of control | [7] 100 % of control | dose: 200.0 mg/kg/injection, schedule: Q01DX009 (ip), vehicle: saline with Tween-80 88 % of control | dose: 200.0 mg/kg/injection, schedule: Q04DX003 (ip), vehicle: saline with Tween-80 89 % of control | [8] 105 % of control

COc1ccc(OC)c(NC(=S)N/N=C(\C)c2ccc(O)c(C)c2)c1
inactive: dose: 12.5 mg/kg/injection, schedule: Q04DX002 (ip), vehicle: Klucel (hydroxypropylcellulose) (HPC) 97 % of control | dose: 25.0 mg/kg/injection, schedule: Q04DX002 (ip), vehicle: Klucel (hydroxypropylcellulose) (HPC) 115 % of control

CCC(CC)NC(CC)CO (centres undefined)
inactive: dose: 75.0 mg/kg/injection, schedule: Q01DX001 (ip), vehicle: carboxymethylcellulose (CMC) 101 % of control | dose: 150.0 mg/kg/injection, schedule: Q01DX001 (ip), vehicle: carboxymethylcellulose (CMC) 100 % of control

CC1=Nc2ccccc2NC(C)(C)C1
inactive: dose: 100.0 mg/kg/injection, schedule: Q04DX002 (ip), vehicle: saline 102 % of control | [9] 100 % of control | dose: 200.0 mg/kg/injection, schedule: Q04DX002 (ip), vehicle: saline 102 % of control | [10] 98 % of control | [11] 98 % of control

C=CC(OC)OC
inactive: dose: 25.0 mg/kg/injection, schedule: Q04DX003 (ip), vehicle: saline 95 % of control | dose: 50.0 mg/kg/injection, schedule: Q04DX003 (ip), vehicle: saline 93 % of control

c1cnc2[nH]cnc2n1
inactive: [12] 86 % of control | [9] 100 % of control | [13] 109 % of control | [10] 100 % of control | [14] 112 % of control | [11] 105 % of control

CC(C)(/C=N/NC(N)=O)c1ccccc1
inactive: dose: 50.0 mg/kg/injection, schedule: Q01DX001 (ip), vehicle: Klucel (hydroxypropylcellulose) (HPC) 96 % of control | [15] 102 % of control | [16] 96 % of control

CSc1ccc(NC(=O)N(Cc2ccccc2)c2ccccc2)cc1
inactive: [17] 106 % of control | [18] 101 % of control | [19] 95 % of control

C/C(=N/NC(=O)c1ccccc1)c1ccc(Cl)cc1Cl
inactive: dose: 100.0 mg/kg/injection, schedule: Q04DX003 (ip), vehicle: other 97 % of control | dose: 200.0 mg/kg/injection, schedule: Q04DX003 (ip), vehicle: other 108 % of control

N#CCCCCSC12CC3CC(CC(C3)C1)C2
inactive: [20] 115 % of control | [21] 108 % of control | [22] 89 % of control

O=C(O)c1cc(Br)cc(I)c1Br
inactive: [20] 105 % of control | [21] 117 % of control | [22] 105 % of control

COc1cc(NC(N)=O)cc(OC)c1OC
inactive: dose: 100.0 mg/kg/injection, schedule: Q01DX009 (ip), vehicle: saline sonified 101 % of control | [9] 99 % of control | dose: 200.0 mg/kg/injection, schedule: Q01DX009 (ip), vehicle: saline sonified 95 % of control | [10] 94 % of control | dose: 400.0 mg/kg/injection, schedule: Q01DX009 (ip), vehicle: saline sonified 101 % of control | [11] 99 % of control

NC(C(=O)O)c1cccc(Cl)c1 (centres undefined)
inactive: [15] 123 % of control | [9] 100 % of control | [16] 109 % of control | [10] 91 % of control | dose: 400.0 mg/kg/injection, schedule: Q01DX001 (ip), vehicle: Klucel (hydroxypropylcellulose) (HPC) 105 % of control | [11] 100 % of control

N=C(N)c1cccc(NC(=O)Nc2cccc(C(=N)N)c2)c1
inactive: dose: 15.0 mg/kg/injection, schedule: Q01DX Z (ip), vehicle: saline 104 % of control | dose: 30.0 mg/kg/injection, schedule: Q01DX Z (ip), vehicle: saline 104 % of control

OCC1OC(c2ccccc2)OC1C1OC(c2ccccc2)OC1CO (centres undefined)
inactive: [4] 98 % of control | [5] 96 % of control | [6] 98 % of control

CC(C)(C)c1cc(/C=N/NC(=S)Nc2ccccc2)cc(C(C)(C)C)c1O
inactive: [20] 96 % of control | [21] 89 % of control | [22] 92 % of control

O=C(OCC(O)C(O)C(O)C(COC(=O)c1ccccc1)OC(=O)c1ccccc1)c1ccccc1 (centres undefined)
inactive: dose: 87.5 mg/kg/injection, schedule: Q01DX009 (ip), vehicle: carboxymethylcellulose (CMC) 87 % of control | [23] 98 % of control | dose: 175.0 mg/kg/injection, schedule: Q01DX009 (ip), vehicle: carboxymethylcellulose (CMC) 90 % of control | [24] 96 % of control | dose: 350.0 mg/kg/injection, schedule: Q01DX009 (ip), vehicle: carboxymethylcellulose (CMC) 87 % of control | [25] 93 % of control

O=C(Nc1ccc(Cl)cc1)OCC#CCOC(=O)Nc1ccc(Cl)cc1
inactive: dose: 75.0 mg/kg/injection, schedule: Q04DX003 (ip), vehicle: Klucel (hydroxypropylcellulose) (HPC) 93 % of control | dose: 100.0 mg/kg/injection, schedule: Q01DX001 (ip), vehicle: saline with Tween-80 90 % of control | [7] 88 % of control | dose: 150.0 mg/kg/injection, schedule: Q04DX003 (ip), vehicle: Klucel (hydroxypropylcellulose) (HPC) 93 % of control | dose: 200.0 mg/kg/injection, schedule: Q01DX001 (ip), vehicle: saline with Tween-80 88 % of control | dose: 300.0 mg/kg/injection, schedule: Q04DX003 (ip), vehicle: Klucel (hydroxypropylcellulose) (HPC) 98 % of control | dose: 400.0 mg/kg/injection, schedule: Q01DX001 (ip), vehicle: saline with Tween-80 90 % of control | [8] 90 % of control

Nc1nc(Nc2ccccc2)nc(C(=O)O)n1
inactive: [12] 92 % of control | [1] 110 % of control | [13] 106 % of control | [2] 101 % of control | [14] 115 % of control | [3] 106 % of control

CCOc1ccc(Br)cc1C1N(Cc2ccc(N(CCCl)CCCl)cc2C)CCCN1Cc1ccc(N(CCCl)CCCl)cc1C
inactive: [23] 106 % of control | [24] 101 % of control | [25] 108 % of control

CN(C)C=Nc1cccc2cn[nH]c12
inactive: dose: 100.0 mg/kg/injection, schedule: Q04DX002 (ip), vehicle: saline with Tween-80 106 % of control | dose: 200.0 mg/kg/injection, schedule: Q04DX002 (ip), vehicle: saline with Tween-80 106 % of control | dose: 400.0 mg/kg/injection, schedule: Q04DX002 (ip), vehicle: saline with Tween-80 98 % of control

Cc1c([N+](=O)[O-])c(C)c([N+](=O)[O-])c(C(C)(C)C)c1[N+](=O)[O-]
inactive: [17] 93 % of control | [9] 92 % of control | [18] 94 % of control | [10] 100 % of control | [19] 96 % of control | [11] 94 % of control
